# Reference: patent publication US11535607B2, “Isoindolines as HDAC inhibitors” (Valo Health, Inc., priority 2018, dated 2022)
# Counter-ions that a name gives are not always drawn.
# Target: full-length human HDAC11 (Homo sapiens (Human), UniProt Q96DB2)
# Assay: Probe binding HDAC11 time resolved fluorescence (TRF) assay
# Settings: Table 2, read-out: HDAC11 IC50 Range
# Description: The probe binding HDAC11 assay was performed using a time resolved fluorescence (TRF) assay format. Recombinant N-terminal GST tag full-length human HD AC 11 was expressed and purified from baculovirus in Sf9 insect cells (SignalChem, #H93-30G-1000). […] 4 μL of 2× probe and 2× anti-GST Terbium (Cisbio, #61GSTXLB) was added to assay plates followed by 4 μL of 2×HDAC11.
# Data from HD AC 11 Assays were reported as percent inhibition (inh) compared with control wells based on the following equation: % inh=1−((FLU−AveLow)/(AveHigh−AveLow)) where FLU=measured time resolved fluorescence. AveLow=average time resolved fluorescence of no enzyme control (n=32). AveHigh=average time resolved fluorescence of DMSO control (n=32). IC50 values were determined by curve fitting of the standard 4 parameter logistic fitting algorithm included in the Activity Base software package: IDBS XE Designer Model205. Data is fitted using the Levenburg Marquardt algorithm.
# Sequence of full-length human HDAC11 (Q96DB2 whole entry): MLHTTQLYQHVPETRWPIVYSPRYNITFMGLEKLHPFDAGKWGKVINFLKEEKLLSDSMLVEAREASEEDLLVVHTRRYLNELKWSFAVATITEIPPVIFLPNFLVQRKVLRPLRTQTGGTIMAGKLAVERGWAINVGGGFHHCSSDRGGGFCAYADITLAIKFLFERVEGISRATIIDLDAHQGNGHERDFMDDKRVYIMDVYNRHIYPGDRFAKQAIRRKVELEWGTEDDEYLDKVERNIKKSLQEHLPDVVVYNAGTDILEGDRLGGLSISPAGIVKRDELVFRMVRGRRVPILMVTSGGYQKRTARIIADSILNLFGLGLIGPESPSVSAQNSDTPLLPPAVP
row,SMILES,IC50 [nM]
1,"CC1(C)c2cccc(C(=O)NO)c2CN1C(=O)c1ccc(C(F)(F)F)cc1 [Compound 28-1, N-hydroxy-1,1-dimethyl-2-(4-(trifluoromethyl)benzoyl)isoindoline-4-carboxamide]",> 1000
2,"CC1(C)c2cccc(C(=O)NO)c2CN1C(=O)c1cccc(C(F)(F)F)c1 [Compound 28-2, N-hydroxy-1,1-dimethyl-2-(3-(trifluoromethyl)benzoyl)isoindoline-4-carboxamide]",> 1000
3,"CCC(C(=O)N1Cc2cccc(C(=O)NO)c2C1)c1ccc(OC)cc1 (stereo not drawn) [Compound 28-3, N-hydroxy-2-(2-(4-methoxyphenyl)butanoyl)isoindoline-4-carboxamide]",> 1000
4,"CC1(C)c2cccc(C(=O)NO)c2CN1C(=O)Nc1ccc(C(F)(F)F)cc1 [Compound 29-1, N4-hydroxy-1,1-dimethyl-N2-(4-(trifluoromethyl)phenyl)isoindoline-2,4-dicarboxamide]",< 500
5,"CC1(C)c2cccc(C(=O)NO)c2CN1C(=O)Nc1ccc(C(F)(F)F)nc1 [Compound 30-1, N4-hydroxy-1,1-dimethyl-N2-(6-(trifluoromethyl)pyridin-3-yl)isoindoline-2,4-dicarboxamide]",500 to 1000
6,"CC1(C)c2cccc(C(=O)NO)c2CN1C(=O)Nc1ccc(C(F)(F)F)cn1 [Compound 30-2, N4-hydroxy-1,1-dimethyl-N2-(5-(trifluoromethyl)pyridin-2-yl)isoindoline-2,4-dicarboxamide]",> 1000
7,"CC1(C)c2cccc(C(=O)NO)c2CN1C(=O)Nc1ccnc(C(F)(F)F)c1 [Compound 30-3, N4-hydroxy-1,1-dimethyl-N2-(2-(trifluoromethyl)pyridin-4-yl)isoindoline-2,4-dicarboxamide]",< 500
8,"CC1(C)c2cccc(C(=O)NO)c2CN1C(=O)Nc1cncc(C(F)(F)F)c1 [Compound 30-4, N4-hydroxy-1,1-dimethyl-N2-(5-(trifluoromethyl)pyridin-3-yl)isoindoline-2,4-dicarboxamide]",> 1000
9,"CC1(C)c2cccc(C(=O)NO)c2CN1C(=O)Nc1cc(C(F)(F)F)ccn1 [Compound 30-5, N4-hydroxy-1,1-dimethyl-N2-(4-(trifluoromethyl)pyridin-2-yl)isoindoline-2,4-dicarboxamide]",< 500
10,"CC1(C)c2cccc(C(=O)NO)c2CN1C(=O)Nc1cccc(C(F)(F)F)n1 [Compound 30-6, N4-hydroxy-1,1-dimethyl-N2-(6-(trifluoromethyl)pyridin-2-yl)isoindoline-2,4-dicarboxamide]",> 1000
11,"CC1(C)c2cccc(C(=O)NO)c2CN1C(=O)Nc1nc2ccccc2o1 [Compound 30-7, N2-(benzo[d]oxazol-2-yl)-N4-hydroxy-1,1-dimethylisoindoline-2,4-dicarboxamide]",> 1000
12,"CC1(C)c2cccc(C(=O)NO)c2CN1C(=O)Nc1cc2c(cn1)CCCC2 [Compound 31-1, N4-hydroxy-1,1-dimethyl-N2-(5,6,7,8-tetrahydroisoquinolin-3-yl)isoindoline-2,4-dicarboxamide]",500 to 1000
13,"COc1ccc(CN2Cc3c(C(=O)NO)cccc3C2(C)C)cc1 [Compound 32-1, N-hydroxy-2-(4-methoxybenzyl)-1,1-dimethylisoindoline-4-carboxamide hydrochloride]",> 1000
14,"CC1(C)c2ccnc(C(=O)NO)c2CN1c1ccc(C(F)(F)F)cn1 [Compound 33-1, N-hydroxy-1,1-dimethyl-2-(5-(trifluoromethyl)pyridin-2-yl)-2,3-dihydro-1H-pyrrolo [3,4-c]pyridine-4-carboxamide]",500 to 1000
15,"O=C(NO)c1cccc2c1CN(c1nc3cc(C(F)(F)F)c(-c4ccccc4)cc3[nH]1)C2 [Compound 34-1, N-hydroxy-2-(5-phenyl-6-(trifluoromethyl)-1H-benzo[d]imidazol-2-yl)isoindoline-4-carboxamide]",< 500
16,"O=C(NO)c1cccc2c1CN(c1nc3cc(C(F)(F)F)cc(-c4ccccc4)c3[nH]1)C2 [Compound 35-1, N-hydroxy-2-(7-phenyl-5-(trifluoromethyl)-1H-benzo[d]imidazol-2-yl)isoindoline-4-carboxamide]",500 to 1000
17,"O=C(NO)c1cccc2c1CN(c1nc3cccc(-c4ccccc4)c3[nH]1)C2 [Compound 35-2, N-hydroxy-2-(7-phenyl-1H-benzo[d]imidazol-2-yl)isoindoline-4-carboxamide]",> 1000
18,"O=C(NO)c1cccc2c1CN(c1nc3ccccc3o1)C2=O [Compound 36-1, 2-(benzo[d]oxazol-2-yl)-N-hydroxy-1-oxoisoindoline-4-carboxamide]",> 1000
19,"O=C(NO)c1cccc2c1CN(c1nc3cc(C(F)(F)F)ccc3o1)C2=O [Compound 36-2, N-hydroxy-1-oxo-2-(5-(trifluoromethyl)benzo[d]oxazol-2-yl)isoindoline-4-carboxamide]",< 500
20,"O=C(NO)c1cccc2cc(-c3ccc(C(F)(F)F)cc3)[nH]c12 [Compound 37-1, N-hydroxy-2-(4-(trifluoromethyl)phenyl)-1H-indole-7-carboxamide]",500 to 1000
21,"O=C(NO)c1cccc2[nH]c(-c3ccc(C(F)(F)F)cc3)cc12 [Compound 37-2, N-hydroxy-2-(4-(trifluoromethyl)phenyl)-1H-indole-4-carboxamide]",500 to 1000
22,"O=C(NO)c1cccc2cc(-c3cnc(C(F)(F)F)cn3)[nH]c12 [Compound 37-3, N-hydroxy-2-(5-(trifluoromethyl)pyrazin-2-yl)-1H-indole-7-carboxamide]",< 500
23,"O=C(NO)c1cccc2[nH]c(-c3cnc(C(F)(F)F)cn3)cc12 [Compound 37-4, N-hydroxy-2-(5-(trifluoromethyl)pyrazin-2-yl)-1H-indole-4-carboxamide]",< 500
24,"O=C(NO)c1cccc2c1NC(c1ccc(C(F)(F)F)cc1)C2 (stereo not drawn) [Compound 38-1, N-hydroxy-2-(4-(trifluoromethyl)phenyl)indoline-7-carboxamide]",500 to 1000
25,"O=C(NO)c1cccc2c1CC(c1ccc(C(F)(F)F)cc1)N2 (stereo not drawn) [Compound 38-2, N-hydroxy-2-(4-(trifluoromethyl)phenyl)indoline-4-carboxamide]",> 1000
26,"O=C(NO)c1cccc2c1N[C@@H](c1ccc(C(F)(F)F)cc1)C2 [Compound 39-1, (R)—N-hydroxy-2-(4-(trifluoromethyl)phenyl)indoline-7-carboxamide]",< 500
27,"O=C(NO)c1cccc2c1N[C@H](c1ccc(C(F)(F)F)cc1)C2 [Compound 39-2, (S)—N-hydroxy-2-(4-(trifluoromethyl)phenyl)indoline-7-carboxamide]",> 1000
28,"CC1(C)c2cccc(C(=O)NO)c2N[C@H]1c1ccc(C(F)(F)F)cn1 [Compound 40-1, (R)—N-hydroxy-3,3-dimethyl-2-(5-(trifluoromethyl)pyridin-2-yl)indoline-7-carboxamide]",> 1000
29,"CC1(C)c2cccc(C(=O)NO)c2N[C@@H]1c1ccc(C(F)(F)F)cn1 [Compound 40-2, (S)—N-hydroxy-3,3-dimethyl-2-(5-(trifluoromethyl)pyridin-2-yl)indoline-7-carboxamide]",< 500
30,"CC1(C)c2cccc(C(=O)NO)c2N[C@H]1c1cnc(C(F)(F)F)cn1 [Compound 40-3, (R)-N-hydroxy-3,3-dimethyl-2-(5-(trifluoromethyl)pyrazin-2-yl)indoline-7-carboxamide]",< 500
